Common to all, as to format: biochemical
For assay [1], the target named is human carbonic anhydrase-2 (Homo sapiens (Human), UniProt P00918). In words: Carbonic anhydrase assay, carbonic anhydrase-2 (Method 4). Particulars: read-out: Inhibition of Carbonic anhydrase-2 IC50. As for the experimental part: (§1) 4. Carbonic Anhydrase Assay
The principle of the assay is based on the hydrolysis of 4-nitrophenyl acetate by carbonic anhydrases (Pocker & Stone, Biochemistry, 1967, 6, 668), with subsequent photometric determination of the dye product 4-nitrophenolate at 400 nm by means of a 96-channel spectral photometer.
(§2) 2 μL of the test compounds, dissolved in DMSO (100-fold final concentration), in a concentration range of 0.03-10 μmol/L (final), was pipetted as quadruplicates into the wells of a 96-hole microtiter plate. Wells that contained the solvent without test compounds were used as reference values (1. Wells without carbonic anhydrase for correction of the non-enzymatic hydrolysis of the substrate, and 2. Wells with carbonic anhydrase for determining the activity of the non-inhibited enzyme).
(§3) 188 μL of assay buffer (10 mmol/L of Tris/HCl, pH 7.4, 80 mmol/L of NaCl), with or without 3 units/well of carbonic anhydrase-1 [=human carbonic anhydrase-1 (Sigma, #C4396)] in order to determine carbonic anhydrase-1 inhibition or 3 units/well of carbonic anhydrase-2 [=human carbonic anhydrase-2 (Sigma, #C6165)] for measuring carbonic anhydrase-2 inhibition, was pipetted into the wells of the microtiter plate.

For a further assay, the target named is CDK2/CycE (Homo sapiens (Human), UniProt P24941). Nature of the assay: CDK2/CycE kinase assay (Method 2). The note with it: 10 μM ATP.
Assay [2] deals with human carbonic anhydrase-1 (Homo sapiens (Human), UniProt P00915). Nature of the assay: Carbonic anhydrase assay, carbonic anhydrase-1 (Method 4). Particulars: read-out: Inhibition of Carbonic anhydrase-1 IC50. The method, then: as §1, §2, §3

Structures are written as SMILES.

For orientation: IC50 means the midpoint of a concentration-inhibition curve.

Chain of human carbonic anhydrase-1 (P00915 whole entry): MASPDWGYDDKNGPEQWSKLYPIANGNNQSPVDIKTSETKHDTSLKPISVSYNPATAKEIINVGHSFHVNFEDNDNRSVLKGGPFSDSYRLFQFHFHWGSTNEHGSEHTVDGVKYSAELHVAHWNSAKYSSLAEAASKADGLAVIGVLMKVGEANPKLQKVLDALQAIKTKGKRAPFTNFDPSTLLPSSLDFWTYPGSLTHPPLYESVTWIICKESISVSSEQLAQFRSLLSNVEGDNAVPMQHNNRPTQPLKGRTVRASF

Regarding `CS(=O)(Cc1cc(Br)cc(Nc2ncc(F)c(-c3ccc(F)cc3F)n2)c1)=NC#N` (racemic) [Example 18, (rac)-[(3-Bromo-5-{[4-(2,4-difluorophenyl)-5-fluoropyrimidin-2-yl]amino}benzyl)(methyl)oxido-λ^6-sulfanylidene]cyanamide], the IC50 in assay [1] was greater than 10 µM; on CDK2/CycE it was 0.47 µM; in assay [2], greater than 10 µM.

(Values after patent US9499492B2, “4-(ortho)-fluorophenyl-5-fluoropyrimidin-2-yl amines containing a sulfoximine group” (BAYER PHARMA AKTIENGESELLSCHAFT, priority 2012, dated 2016).)
